Measurements reported in US20250134853A1, “COMPOUNDS AND METHODS FOR USING GALLOYLATED POLYPHENOLS TO TREAT DISEASES MEDIATED BY THIOL ISOMERASES” (Beth Israel Deaconess Medical Center, Inc., priority 2023, published 2025).
Entries after “also recorded” stand apart in the source; their conditions may differ.

How the values were obtained:
[1] = tested on: SARS-CoV-2; settings: cited from earlier work
[2] = tested on: recombinant PDI, ERp57, and ERp5; experiment: Di-eosin-GSSG assay, thiol isomerases at 20 μM compound; type: biochemical; settings: 15 minute incubation
[3] = molecular target: T1, SARS-CoV-2 M^pro (Severe acute respiratory syndrome coronavirus 2, UniProt P0DTD1); settings: literature values (Table 2); read-out: SARS-CoV-2 M^pro inhibition; cited from earlier work
[4] = tested on: PDI domain fragments (a, a′, ab, abb′, b′xa′); experiment: Di-eosin-GSSG assay on isolated PDI domain fragments; type: biochemical; settings: 20 μM
Description: (§1) Di-eosin-GSSG disulfide reductase assay. The probe di-eosin glutathione disulfide, di-eosin-GSSG, was prepared by incubating 100 μM of GSSG with 1 mM of eosin isothiocyanate in 100 mM potassium phosphate containing 2 mM EDTA (pH 7.4), at 25° C. overnight in the dark. The mixture was passed down a PD-10 column and different fractions were collected. A fold change of fluorescence (Ex: 520 nm, Em: 550 nm) was calculated using samples subjected to either vehicle or 20 mM of DTT. Any fraction with a fold change >5 was kept. Using a stock of 10 mM eosin isothiocyanate, a standard curve was generated and concentration of samples were determined accordingly. Di-eosin-GSSG cleavage of purified thiol isomerases and PDI domains was monitored in a 96-well fluorescence plate format. PDI, CGXC-PDI variants, ERp5, ERp57, ERp46 and PDI domains were assayed at 50 nM in the presence or absence of the indicated small molecules. The assay included a thiol isomerase assay buffer (39 mM KH2PO4, 61 mM K2HPO4, 2 mM EDTA, 5 M DTT, pH 7.4) and 150 nM of the di-eosin-GSSG probe. The increase in fluorescence was determined for 60 min by excitation at 520 nm and emission at 550 nm in a Synergy Biotek 4. The reduction of 150 nM di-eosin-GSSG by 5 μM DTT in the presence or absence of mentioned small molecule or proteins served as a negative control.

[5] = molecular target: T2, PDI (Homo sapiens, UniProt P07237); experiment: Di-eosin-GSSG disulfide reductase assay, PDI; type: biochemical; settings: Table 1; IC50 curves on PDI activity (FIGS. 13B-E, 17A-E); read-out: Relative PDI inhibition
T2 construct: FLAG; made in house; host or cells: Escherichia coli Origami B (DE3)
T2 sequence (P07237 18-508): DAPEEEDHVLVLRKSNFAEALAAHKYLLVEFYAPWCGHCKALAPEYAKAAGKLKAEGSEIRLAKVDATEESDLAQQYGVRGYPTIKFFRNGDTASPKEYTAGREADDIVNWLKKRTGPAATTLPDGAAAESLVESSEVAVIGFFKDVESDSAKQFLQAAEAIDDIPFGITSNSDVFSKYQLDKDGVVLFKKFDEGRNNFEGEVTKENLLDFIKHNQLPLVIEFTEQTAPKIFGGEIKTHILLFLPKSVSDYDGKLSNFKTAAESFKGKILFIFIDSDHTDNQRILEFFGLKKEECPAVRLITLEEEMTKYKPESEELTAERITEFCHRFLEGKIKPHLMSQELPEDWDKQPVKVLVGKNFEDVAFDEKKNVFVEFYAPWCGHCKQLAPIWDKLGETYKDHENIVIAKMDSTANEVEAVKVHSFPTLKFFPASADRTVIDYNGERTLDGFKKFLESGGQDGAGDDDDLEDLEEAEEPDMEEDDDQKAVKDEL
Description: as §1

[6] = molecular target: T2, PDI; experiment: Insulin reductase assay; type: biochemical; settings: 20 μM
Description: Insulin reductase assay. Insulin was prepared by mixing 12.5 mg/mL insulin in 50 mM Tris-HCl, pH 8. 1 M HCl was carefully added to drop the pH to 2.0 for solution clarification. Once the solution clarifies, 1 M NaOH was added to rapidly adjust the pH back to 8.0. The solution was then adjusted to 1.5 mM (10 mg/mL) with 50 mM Tris-HCl, aliquoted and stored in −20° C. until use. 2× concentrations of thiol isomerases were prepared (final concentrations as indicated in each assay) and mixed with 1.2 mM DTT (final 0.3 mM) and 0.4 mM insulin (final 0.1 mM) using a thiol isomerase activity assay buffer. Insulin precipitation from enzyme-mediated reduction was assayed in 96-well clear bottom plates at 650 nm absorption.

[7] = tested on: platelets; settings: cited from earlier work
[8] = molecular target: T1, SARS-CoV-2 M^pro; settings: cited from earlier work

1,2,3,4,6-pentagalloylglucose [Pentagalloyl-glucose]
IC50 ([1]; Vero Cells, read-out: Inhibition of viral replication IC50): 15 µM
inhibition of SARS-CoV-2 / infection (in words) [1]: inhibits SARS-CoV-2 viral infection in culture
inhibition of thiol isomerases (PDI, ERp57, ERp5) in words [2]: potently inhibited all thiol isomerases tested
IC50 [3]: 25 µM
inhibition of isolated a′ domain cleavage of di-eosin-GSSG [4]: inhibited the ability of isolated a′ domain to cleave di-eosin-GSSG
IC50 [5]: 2.9 µM
inhibition of the ability of PDI to reduce insulin [6]: inhibited the ability of PDI to reduce insulin
antiplatelet activities [7]: have antiplatelet activities
Modeling shows gallic acid interaction with His41 or Glu166 [8]: occludes His41;; also recorded: reacts with Glu166
